pIC50: −log10 of the molar value.
Legend:
[1] = Inhibition of [3H]WIN-35428 binding to dopamine transporter (DAT)
[2] = target: Sodium-dependent dopamine transporter (Homo sapiens, UniProt Q01959); test: Inhibition of [3H]WIN-35428 binding to human dopamine transporter (hDAT)
[3] = target: Sodium-dependent serotonin transporter (Homo sapiens, UniProt P31645); test: Inhibition of [3H]citalopram binding to human serotonin transporter (hSERT)
Sodium-dependent serotonin transporter, sequence (P31645 whole entry): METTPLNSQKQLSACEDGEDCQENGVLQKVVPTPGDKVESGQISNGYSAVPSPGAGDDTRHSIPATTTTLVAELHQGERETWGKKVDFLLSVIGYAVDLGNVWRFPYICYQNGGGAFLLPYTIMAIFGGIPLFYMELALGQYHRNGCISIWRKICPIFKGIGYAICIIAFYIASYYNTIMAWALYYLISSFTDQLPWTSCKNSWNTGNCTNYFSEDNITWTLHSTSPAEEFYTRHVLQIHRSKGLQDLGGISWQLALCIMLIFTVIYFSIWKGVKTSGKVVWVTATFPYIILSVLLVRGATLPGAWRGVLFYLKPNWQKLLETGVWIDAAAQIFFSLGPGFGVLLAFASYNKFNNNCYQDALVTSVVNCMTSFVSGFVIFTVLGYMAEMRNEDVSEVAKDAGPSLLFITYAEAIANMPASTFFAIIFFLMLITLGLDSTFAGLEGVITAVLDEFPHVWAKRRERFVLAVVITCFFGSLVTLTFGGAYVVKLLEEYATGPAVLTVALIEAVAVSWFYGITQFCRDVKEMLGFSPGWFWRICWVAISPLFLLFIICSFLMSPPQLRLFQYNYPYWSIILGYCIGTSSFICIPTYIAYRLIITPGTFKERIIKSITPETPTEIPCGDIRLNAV

Sodium-dependent dopamine transporter, sequence (Q01959 whole entry): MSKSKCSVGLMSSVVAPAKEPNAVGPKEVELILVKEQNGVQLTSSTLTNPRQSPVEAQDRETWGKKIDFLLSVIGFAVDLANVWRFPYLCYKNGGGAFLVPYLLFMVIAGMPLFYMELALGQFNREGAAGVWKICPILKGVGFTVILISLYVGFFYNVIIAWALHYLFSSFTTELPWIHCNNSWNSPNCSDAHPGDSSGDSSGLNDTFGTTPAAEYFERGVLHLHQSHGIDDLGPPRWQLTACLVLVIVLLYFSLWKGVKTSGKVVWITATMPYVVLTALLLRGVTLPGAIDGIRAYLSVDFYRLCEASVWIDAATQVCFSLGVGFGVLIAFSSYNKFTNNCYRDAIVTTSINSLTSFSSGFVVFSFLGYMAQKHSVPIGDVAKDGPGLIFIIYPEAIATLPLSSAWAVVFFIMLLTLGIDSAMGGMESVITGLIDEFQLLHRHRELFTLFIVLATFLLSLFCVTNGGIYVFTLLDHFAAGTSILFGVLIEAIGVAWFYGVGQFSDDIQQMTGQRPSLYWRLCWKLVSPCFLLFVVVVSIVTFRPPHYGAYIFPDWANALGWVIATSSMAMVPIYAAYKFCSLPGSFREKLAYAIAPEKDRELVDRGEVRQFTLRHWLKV

Row | SMILES | pIC50 [1] | pIC50 [2] | pIC50 [3]
1 | COC(=O)[C@H]1[C@@H](OC(=O)c2ccccc2)C[C@@H]2CC[C@H]1N2C [COCAINE] | 7.00 | – | –
2 | COC(=O)C1=C(c2ccc(I)cc2)CC2CCC1O2 (stereo unspecified) | – | 7.17 | 5.32
3 | COC(=O)C1=C(c2ccc(Br)cc2)CC2CCC1S2 (stereo unspecified) | – | 8.04 | < 4.60
4 | COC(=O)C1=C(c2ccc(Cl)c(Cl)c2)CC2CCC1O2 (stereo unspecified) | – | 7.92 | –
5 | COC(=O)C1=C(c2ccc3ccccc3c2)CC2CCC1S2 (stereo unspecified) | – | 8.10 | 5.89
6 | COC(=O)C1=C(c2ccc(Cl)cc2)CC2CCC1S2 (stereo unspecified) | – | 7.89 | < 5.00
7 | COC(=O)C1=C(c2ccc(Cl)cc2)CC2CCC1O2 (stereo unspecified) | – | 6.62 | < 4.22
8 | COC(=O)C1=C(c2ccc(F)cc2)CC2CCC1S2 (stereo unspecified) | – | 6.66 | 4.55
9 | COC(=O)C1=C(c2ccc(Br)cc2)CC2CCC1O2 (stereo unspecified) | – | 7.21 | < 4.52
10 | COC(=O)C1=C(c2ccc(F)cc2)CC2CCC1O2 (stereo unspecified) | – | 5.56 | < 4.30
11 | COC(=O)C1=C(c2ccccc2)CC2CCC1S2 (stereo unspecified) | – | 6.04 | < 5.00
12 | COC(=O)C1=C(c2ccc(I)cc2)CC2CCC1S2 (stereo unspecified) | – | 8.17 | 5.06
13 | COC(=O)C1=C(c2ccc(Cl)c(Cl)c2)CC2CCC1S2 (stereo unspecified) | – | 8.35 | 5.44
14 | COC(=O)C1=C(c2ccccc2)CC2CCC1O2 (stereo unspecified) | – | < 5.00 | < 5.00

Source: ChEMBL document CHEMBL1138717, “Synthesis of 8-thiabicyclo[3.2.1]oct-2-enes and their binding affinity for the dopamine and serotonin transporters” (Bioorg Med Chem Lett, 2004)
